Laboratory results reported in patent publication US20080249080A1, “Benzodiazepine Derivatives and Uses Thereof on Medical Field” (priority 2005, published 2008).
Entries after “also recorded” stand apart in the source; their conditions may differ.

Key:
[1] = system: RET/V804L and RET/V804M transformed cells; conditions: same concentration (1 μl of ZD6474); cited from earlier work
[2] = system: RET/E768D, RET/L790F, RET/Y791F, RET/A883F and RET/S891A mutants; conditions: cited from earlier work
[3] = system: RET/V804L and RET/V804M mutants; conditions: cited from earlier work
[4] = system: RET/C634R and RET/M918T mutants; conditions: cited from earlier work
[5] = system: RET/C634R transformed RAT1 fibroblasts; conditions: 1 μl of ZD6474; cited from earlier work
[6] = biological target: RET kinase (Homo sapiens, UniProt P07949); conditions: cited from earlier work
[7] = system: Jurkat (cell line from acute lymphoblastic T variant leukemias); assay: Apoptosis by propidium iodide flow cytofluorimetry, Jurkat; type: cell-based; conditions: 10 μM; for percentage of the apoptotic cells in comparison with non treated cells: FIGS. 7-9; for time after which apoptosis is induced: propidium iodide, cytofluorimeter
Description: (§1) The used cellular lines are: K562 (human erythroleucemic cell line), HL60 (human acute promyelocytic leukemia cell line), Jurkat (cell line from acute lymphoblastic T variant leukemias), U937 (acute promyelocitic leukemia cell line) and Glivec resistant K562 (this cell line was supplied kindly by Prof. Carlo Gambacorti-Passerini of the Dipartimento of Clinica Medica, Università of Milan-Bicocca, Monza, Italy) (Gambacorti-Passerini CB, et al, 2002).
(§2) The cell lines were incubated with RS678 and RS779 synthetic compounds at 10 μM concentration for 8, 16 and 24 hours, subsequently washed with PBS and 2.5 mg/ml of propidium iodide. This phenanthridine dye, when intercalated into double-stranded DNA forms a sufficiently stable complex that under excitation emits a red fluorescent light. By means of this coloration it is possible to discriminate in an heterogenous population cells with different DNA contents and therefore to estimate the distribution of the cellular populations based on their DNA contents and whether possibly, as a result from pharmacological treatments, alterations at level of cell cycle have manifested. The labeled cell lines were analyzed using flow FACSort cytofluorimeter.

[8] = system: K562 (human erythroleucemic cell line); assay: Apoptosis by propidium iodide flow cytofluorimetry, K562; type: cell-based; conditions: 10 μM; for percentage of the apoptotic cells in comparison with non treated cells: FIGS. 7-9; for time after which apoptosis is induced: propidium iodide, cytofluorimeter
Description: as §1, §2

[9] = system: HL60 (human acute promyelocytic leukemia cell line); assay: Apoptosis by propidium iodide flow cytofluorimetry, HL60; type: cell-based; conditions: 10 μM; for percentage of the apoptotic cells in comparison with non treated cells: FIGS. 7-9; for time after which apoptosis is induced: propidium iodide, cytofluorimeter
Description: as §1, §2

[10] = system: Glivec resistant K562; assay: Apoptosis by propidium iodide flow cytofluorimetry, Glivec resistant K562; type: cell-based, human; conditions: 10 μM; for percentage of the apoptotic cells in comparison with non treated cells: FIGS. 7-9; for time after which apoptosis is induced: propidium iodide, cytofluorimeter
Description: as §1, §2

[11] = biological target: T1, bcr-abl protein (Homo sapiens, UniProt P00519); assay: Tyrosine-kinase assay, bcr-abl phosphorylation pattern; type: cell-based; conditions: FIG. 4
T1 construct: endogenous in cells; host or cells: K562; the other entry of the earlier key: BCR (P11274, Breakpoint cluster region protein)
Description: (§3) Moreover, in order to elucidate the apoptotic pathway triggered by these two substances, Western Blotting experiments and tyrosine-kinase assays were carried out and evidenced that: […]

[12] = system: ARO anaplastic thyroid carcinoma cell line; assay: DNA fragmentation, ARO; type: cell-based, human; conditions: 10 μM, 24 and 48 hours
Description: (§4) The authors also have tested compounds according to the invention, in particular RS-678 and RS-779 compounds, also on OVCAR3 ovary carcinoma cell lines, ARO anaplastic thyroid and NPA papillary thyroid human carcinoma cell lines.
(§5) Subsequently, the same cell lines, except OVCAR3, were tested with fourteen new synthetic compounds at 10 μM concentration for 24 and 48 hours: eleven induced the expected cellular death.

[13] = system: ARO cell line; assay: Percentage of dead cells, ARO; type: cell-based, human; conditions: after 24 hours
[14] = system: mixed lymphocytic cultures from marrow or peripheral blood of patients suffering from chronic myelogenous leukemia; assay: DNA fragmentation, mixed lymphocytic cultures of CML patients; type: cell-based, human; conditions: 10 μM
[15] = system: caspase 9; assay: Western blot, caspase 9 in CML patient sample; type: cell-based, human; conditions: 24 and 48 hours, FIG. 15
[16] = system: NPA cell line; assay: Percentage of apoptosis, NPA; type: cell-based, human; conditions: after 24 hours
[17] = system: R2C cell line (rat Leydig tumour); assay: DNA fragmentation, R2C cell line; type: cell-based; conditions: high concentrations (10 μM and 50 μM), FIG. 1 C
[18] = system: NPA papillary thyroid carcinoma cell line; assay: DNA fragmentation, NPA; type: cell-based, human; conditions: 10 μM, 24 and 48 hours
Description: as §4, §5

[19] = system: K562 cell line; assay: Percentage of apoptosis, K562; type: cell-based, human; conditions: after 24 hours
[20] = system: caspase 9; assay: Western blot, caspase 9 activation in K562; type: cell-based, human; conditions: FIG. 3
Description: (§6) Moreover, in order to elucidate the apoptotic pathway triggered by these two substances, Western Blotting experiments and tyrosine-kinase assays were carried out and evidenced that: (i) these compounds activate specific molecules involved in the apoptotic process (caspase 9 and caspase 8) (FIG. 3);

[21] = system: OVCAR3 ovary carcinoma cell line; assay: DNA fragmentation, OVCAR3; type: cell-based, human; conditions: 10 μM, 24 and 48 hours
Excerpt: as §4

[22] = system: caspase 8; assay: Western blot, caspase 8 activation in K562; type: cell-based, human; conditions: FIG. 3
Description: as §6

[23] = system: U937 (acute promyelocitic leukemia cell line); assay: Apoptosis by propidium iodide flow cytofluorimetry, U937; type: cell-based; conditions: 10 μM; for percentage of the apoptotic cells in comparison with non treated cells: FIGS. 7-9; for time after which apoptosis is induced: propidium iodide, cytofluorimeter
Description: as §1, §2

[24] = system: bcr-abl protein; assay: Western blot, bcr-abl protein expression; type: cell-based, human; conditions: after 16 hours of treatment; FIG. 4
Description: as §3

[25] = system: K562 cell line; assay: DNA fragmentation, K562 leukemic cell line; type: cell-based, human; conditions: 5, 10, 15 μM, 8, 16 and 24 hours, FIG. 1 A, B
[26] = mixed lymphocytic cultures of CML patients, 8, 16, 24 and 48 hours
[27] = samples from patients (some Glivec resistant), 24, 48 and 72 hours, FIGS. 12-14

T1 sequence (P00519 with tags, fused parts or gaps): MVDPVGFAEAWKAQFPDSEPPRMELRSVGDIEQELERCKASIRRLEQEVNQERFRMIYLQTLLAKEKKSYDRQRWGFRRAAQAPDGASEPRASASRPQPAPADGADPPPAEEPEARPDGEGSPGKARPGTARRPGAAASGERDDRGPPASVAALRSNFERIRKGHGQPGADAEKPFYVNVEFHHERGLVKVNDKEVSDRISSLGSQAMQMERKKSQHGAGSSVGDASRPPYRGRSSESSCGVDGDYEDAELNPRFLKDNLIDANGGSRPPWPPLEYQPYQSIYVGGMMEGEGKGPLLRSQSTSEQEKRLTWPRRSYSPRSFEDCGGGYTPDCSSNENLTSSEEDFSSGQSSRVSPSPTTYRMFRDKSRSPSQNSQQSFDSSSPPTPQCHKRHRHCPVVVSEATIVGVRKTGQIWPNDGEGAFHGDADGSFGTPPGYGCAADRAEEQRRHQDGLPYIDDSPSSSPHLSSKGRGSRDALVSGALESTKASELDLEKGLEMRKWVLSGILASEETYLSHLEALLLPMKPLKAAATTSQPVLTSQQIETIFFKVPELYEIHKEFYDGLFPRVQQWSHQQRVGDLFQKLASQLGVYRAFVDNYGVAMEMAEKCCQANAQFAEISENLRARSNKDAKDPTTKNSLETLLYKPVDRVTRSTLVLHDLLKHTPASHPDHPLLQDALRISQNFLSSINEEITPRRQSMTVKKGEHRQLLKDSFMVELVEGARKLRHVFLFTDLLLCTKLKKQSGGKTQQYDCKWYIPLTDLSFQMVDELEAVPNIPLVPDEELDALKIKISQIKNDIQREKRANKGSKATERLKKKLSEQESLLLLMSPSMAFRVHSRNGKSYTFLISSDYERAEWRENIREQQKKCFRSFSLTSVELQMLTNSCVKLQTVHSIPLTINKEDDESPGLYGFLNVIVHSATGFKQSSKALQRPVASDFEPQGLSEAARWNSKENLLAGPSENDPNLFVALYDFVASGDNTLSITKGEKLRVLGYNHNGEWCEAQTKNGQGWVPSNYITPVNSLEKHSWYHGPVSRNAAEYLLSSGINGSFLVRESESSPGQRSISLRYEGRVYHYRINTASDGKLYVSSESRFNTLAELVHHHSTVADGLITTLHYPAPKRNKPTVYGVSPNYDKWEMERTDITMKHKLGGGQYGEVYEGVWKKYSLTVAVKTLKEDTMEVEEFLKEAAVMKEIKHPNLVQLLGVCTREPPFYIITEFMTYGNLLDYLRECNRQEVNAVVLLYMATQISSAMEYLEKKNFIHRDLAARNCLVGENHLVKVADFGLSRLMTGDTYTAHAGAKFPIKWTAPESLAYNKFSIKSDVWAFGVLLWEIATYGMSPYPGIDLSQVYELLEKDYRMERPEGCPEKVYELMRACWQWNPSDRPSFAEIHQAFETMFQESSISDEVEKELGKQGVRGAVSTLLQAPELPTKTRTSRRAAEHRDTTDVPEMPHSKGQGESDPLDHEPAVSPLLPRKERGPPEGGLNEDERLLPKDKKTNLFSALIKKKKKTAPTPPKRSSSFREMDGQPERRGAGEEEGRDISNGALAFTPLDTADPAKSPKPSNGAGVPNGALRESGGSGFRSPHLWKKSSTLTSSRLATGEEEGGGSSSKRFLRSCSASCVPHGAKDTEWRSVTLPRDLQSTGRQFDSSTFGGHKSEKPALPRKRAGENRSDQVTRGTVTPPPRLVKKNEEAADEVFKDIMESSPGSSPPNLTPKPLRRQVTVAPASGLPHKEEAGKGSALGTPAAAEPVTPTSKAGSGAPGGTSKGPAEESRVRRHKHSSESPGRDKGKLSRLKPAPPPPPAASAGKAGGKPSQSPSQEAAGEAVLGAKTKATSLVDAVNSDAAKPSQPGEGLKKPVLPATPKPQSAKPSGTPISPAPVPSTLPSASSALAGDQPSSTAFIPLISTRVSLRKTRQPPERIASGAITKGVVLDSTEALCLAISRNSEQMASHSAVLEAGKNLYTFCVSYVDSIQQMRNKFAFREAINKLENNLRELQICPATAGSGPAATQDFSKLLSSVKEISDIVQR
Sequence of RET kinase (P07949 29-1114): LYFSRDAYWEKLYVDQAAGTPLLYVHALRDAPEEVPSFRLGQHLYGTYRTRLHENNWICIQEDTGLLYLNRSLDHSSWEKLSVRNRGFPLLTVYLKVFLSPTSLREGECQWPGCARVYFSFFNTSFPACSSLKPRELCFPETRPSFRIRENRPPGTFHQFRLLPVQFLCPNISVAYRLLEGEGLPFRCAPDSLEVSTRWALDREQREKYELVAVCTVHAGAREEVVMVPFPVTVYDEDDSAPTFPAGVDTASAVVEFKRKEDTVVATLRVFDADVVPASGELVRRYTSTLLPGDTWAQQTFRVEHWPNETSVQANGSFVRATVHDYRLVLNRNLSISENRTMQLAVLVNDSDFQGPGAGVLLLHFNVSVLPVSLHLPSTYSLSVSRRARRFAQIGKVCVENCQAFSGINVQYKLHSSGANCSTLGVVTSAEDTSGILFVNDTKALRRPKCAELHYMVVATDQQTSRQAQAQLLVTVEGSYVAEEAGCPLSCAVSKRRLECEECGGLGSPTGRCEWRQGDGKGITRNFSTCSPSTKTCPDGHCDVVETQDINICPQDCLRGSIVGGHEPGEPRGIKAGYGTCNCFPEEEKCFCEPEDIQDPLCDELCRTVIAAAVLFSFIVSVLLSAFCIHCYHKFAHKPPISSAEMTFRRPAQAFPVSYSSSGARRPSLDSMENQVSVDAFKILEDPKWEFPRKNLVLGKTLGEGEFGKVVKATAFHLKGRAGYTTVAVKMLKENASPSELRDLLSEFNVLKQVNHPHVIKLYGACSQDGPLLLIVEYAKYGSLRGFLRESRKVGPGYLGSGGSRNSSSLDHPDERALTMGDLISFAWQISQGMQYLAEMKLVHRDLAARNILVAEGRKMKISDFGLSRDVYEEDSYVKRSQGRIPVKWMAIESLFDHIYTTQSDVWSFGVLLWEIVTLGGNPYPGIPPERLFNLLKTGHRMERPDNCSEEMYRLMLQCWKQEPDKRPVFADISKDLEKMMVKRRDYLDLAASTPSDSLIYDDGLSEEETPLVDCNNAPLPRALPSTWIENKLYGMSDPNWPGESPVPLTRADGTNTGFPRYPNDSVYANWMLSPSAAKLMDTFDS

| SMILES | inhibition of in vivo self-phosphorylation [2] | sensitivity to the action of inhibitors [3] | block of the transforming activity [4] | percentage of the apoptotic cells in comparison with non treated cells [7] | time after which apoptosis is induced [7] | percentage of the apoptotic cells in comparison with non treated cells [8] | time after which apoptosis is induced [8] | percentage of the apoptotic cells in comparison with non treated cells [9] | time after which apoptosis is induced [9] | percentage of the apoptotic cells in comparison with non treated cells [10] | time after which apoptosis is induced [10] | changes in the phosphorylation pattern of the bcr-abl protein (tyrosine-kinase assay) [11] | DNA fragmentation [12] | DNA fragmentation [14, 26] | DNA fragmentation [14, 27] | DNA fragmentation [17] | DNA fragmentation [18] | activation of caspase 9 (Western blot) [20] | DNA fragmentation [21] | activation of caspase 8 (Western blot) [22] | other results |
| --- | --- | --- | --- | --- | --- | --- | --- | --- | --- | --- | --- | --- | --- | --- | --- | --- | --- | --- | --- | --- | --- |
| COc1cc2c(Nc3ccc(Br)cc3F)ncnc2cc1OCC1CCN(C)CC1 [ZD6474] | inhibited effectively | less sensitive | able to block | – | – | – | – | – | – | – | – | – | – | – | – | – | – | – | – | – | growth [1]: no effect; proliferation [5]: reduces strongly |
| CC(C)(C)n1nc(-c2ccc(Cl)cc2)c2c(N)ncnc21 [PP2] | inhibited effectively | less sensitive | able to block | – | – | – | – | – | – | – | – | – | – | – | – | – | – | – | – | – | inhibiting activity with respect to RET kinase [6]: strong inhibiting activity |
| CCOC(=O)C1c2cccn2S(=O)(=O)c2ccccc2N1C(=O)c1ccc(C)cc1 (stereo not shown) [RS-779, ethyl 10,11-dihydro-10-(4-methylbenzoyl)pyrrolo[1,2-b][1,2,5]benzothiadiazepine-11-carboxylate 5,5-dioxide] | – | – | – | increase | 8 h | increase | 8 h | increase | 8 h | increase | 16 h | not observed | induction of the DNA fragmentation | fragmentation of the DNA | DNA fragmentation | does not occur | induction of the DNA fragmentation | activation | induction of the DNA fragmentation | activation | percentage of dead cells [13]: 45%; activation of caspase 9 (Western blot) [15]: strong activation; percentage of apoptosis [16]: 50%; percentage of apoptosis [19]: 70%; percentage of the apoptotic cells in comparison with non treated cells [23]: increase; time after which apoptosis is induced [23]: 8 h; down-regulation of the bcr-abl protein (Western blot) [24]: down-regulation; apoptosis / DNA fragmentation [25]: able to induce apoptosis; also recorded: DNA fragmentation |
| CCOC(=O)C1Nc2ccccc2S(=O)(=O)n2cccc21 (stereo not shown) [RS-678, ethyl 10,11-dihydropyrrolo[1,2-b][1,2,5]benzothiadiazepine-11-carboxylate 5,5-dioxide] | – | – | – | increase | 8 h | increase | 8 h | increase | 8 h | increase | 16 h | not observed | induction of the DNA fragmentation | fragmentation of the DNA | DNA fragmentation | does not occur | induction of the DNA fragmentation | activation | induction of the DNA fragmentation | activation | percentage of the apoptotic cells in comparison with non treated cells [23]: increase; time after which apoptosis is induced [23]: 8 h; down-regulation of the bcr-abl protein (Western blot) [24]: down-regulation; apoptosis / DNA fragmentation [25]: able to induce apoptosis; also recorded: DNA fragmentation |
